Data as given in ChEMBL document CHEMBL1201861, “Genomics of Drug Sensitity in Cancer screening data, Wellcome Trust Sanger Institute”.

Columns and labels:
Test in all cases: cells
Assay type in all cases: functional, cell-based
CWR22R = settings: Homo sapiens, 22Rv1;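 further: growth inhibition of 22Rv1 cells, read out with a cell viability assay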
Description: SANGER: Inhibition of human 22RV1 cell growth in a cell viability assay.

SCC-9 = settings: Homo sapiens;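 further: Read-out is a cell viability assay, with values giving inhibition of cell growth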
Description: SANGER: Inhibition of human SCC-9 cell growth in a cell viability assay.

BEN = settings: Homo sapiens;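 further: growth inhibition of the BEN cell line, read out with a cell viability assay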
Description: SANGER: Inhibition of human BEN cell growth in a cell viability assay.

VMRC-RCZ = settings: Homo sapiens;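 further: growth inhibition measured with a cell viability assay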
Description: SANGER: Inhibition of human VMRC-RCZ cell growth in a cell viability assay.

769-P = settings: Homo sapiens
Description: SANGER: Inhibition of human 769-P cell growth in a cell viability assay.

CP50-MEL-B = settings: Homo sapiens;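 further: growth inhibition of the human cell line, measured with a cell viability read-out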
Description: SANGER: Inhibition of human CP50-MEL-B cell growth in a cell viability assay.

OE19 = settings: Homo sapiens;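 further: growth inhibition of OE19 cells, measured through a cell viability read-out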
Description: SANGER: Inhibition of human OE19 cell growth in a cell viability assay.

MDA-MB-231 = settings: Homo sapiens
Description: SANGER: Inhibition of human MDA-MB-231 cell growth in a cell viability assay.

NCI-H1693 = settings: Homo sapiens;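 further: growth inhibition of the human cell line, read out with a cell viability assay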
Description: SANGER: Inhibition of human NCI-H1693 cell growth in a cell viability assay.

SW756 = settings: Homo sapiens;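 further: growth inhibition of human SW756 cells, read out with a cell viability assay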
Description: SANGER: Inhibition of human SW756 cell growth in a cell viability assay.

NCI-H2228 = settings: Homo sapiens;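 further: growth inhibition of human NCI-H2228 cells, read out by a cell viability assay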
Description: SANGER: Inhibition of human NCI-H2228 cell growth in a cell viability assay.

SW1990 = settings: Homo sapiens;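 further: cell growth inhibition determined with a viability assay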
Description: SANGER: Inhibition of human SW1990 cell growth in a cell viability assay.

SAS = settings: Homo sapiens;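 further: growth inhibition of SAS cells, read out with a cell viability assay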
Description: SANGER: Inhibition of human SAS cell growth in a cell viability assay.

Daoy = settings: Homo sapiens;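 further: daoy cell growth inhibition, read out as cell viability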
Description: SANGER: Inhibition of human Daoy cell growth in a cell viability assay.

HTC-C3 = settings: Homo sapiens;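 further: inhibition of cell growth, read out with a cell viability assay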
Description: SANGER: Inhibition of human HTC-C3 cell growth in a cell viability assay.

Panc1005 = settings: Homo sapiens;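 further: growth inhibition of human PANC-10-05 cells, measured by a cell viability assay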
Description: SANGER: Inhibition of human PANC-10-05 cell growth in a cell viability assay.

SW780 = settings: Homo sapiens;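 further: growth inhibition of the cells, read out with a cell viability assay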
Description: SANGER: Inhibition of human SW780 cell growth in a cell viability assay.

KU-19-19 = settings: Homo sapiens
Description: SANGER: Inhibition of human KU-19-19 cell growth in a cell viability assay.

BT-20 = settings: Homo sapiens;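 further: cell viability assay measuring suppression of growth in human BT-20 cells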
Description: SANGER: Inhibition of human BT-20 cell growth in a cell viability assay.

Calu-3 = settings: Homo sapiens;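 further: growth inhibition of human Calu-3 cells, determined with a cell viability assay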
Description: SANGER: Inhibition of human Calu-3 cell growth in a cell viability assay.

CHP-212 = settings: Homo sapiens
Description: SANGER: Inhibition of human CHP-212 cell growth in a cell viability assay.

PFSK-1 = settings: Homo sapiens;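 further: cell viability assay measuring how strongly compounds suppress growth of human PFSK-1 cells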
Description: SANGER: Inhibition of human PFSK-1 cell growth in a cell viability assay.

8505C = settings: Homo sapiens
Description: SANGER: Inhibition of human 8505C cell growth in a cell viability assay.

SW1710 = settings: Homo sapiens;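 further: growth inhibition of SW1710 cells, determined with a cell viability assay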
Description: SANGER: Inhibition of human SW1710 cell growth in a cell viability assay.

HCC1569 = settings: Homo sapiens;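 further: growth inhibition of human HCC1569 cells, read out with a cell viability assay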
Description: SANGER: Inhibition of human HCC1569 cell growth in a cell viability assay.

SNU-449 = settings: Homo sapiens
Description: SANGER: Inhibition of human SNU-449 cell growth in a cell viability assay.

ASPC1 = settings: Homo sapiens;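 further: growth inhibition of AsPC-1 cells, read out with a cell viability assay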
Description: SANGER: Inhibition of human AsPC-1 cell growth in a cell viability assay.

HCC1419 = settings: Homo sapiens;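 further: growth inhibition of human HCC1419 cells, read out as cell viability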
Description: SANGER: Inhibition of human HCC1419 cell growth in a cell viability assay.

COLO-678 = settings: Homo sapiens
Description: SANGER: Inhibition of human COLO-678 cell growth in a cell viability assay.

EW-22 = settings: Homo sapiens;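 further: growth inhibition of the EW-22 cell line, measured with a cell viability readout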
Description: SANGER: Inhibition of human EW-22 cell growth in a cell viability assay.

HO-1-N-1 = settings: Homo sapiens;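 further: growth inhibition of human HO-1-N-1 cells, read out with a cell viability assay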
Description: SANGER: Inhibition of human HO-1-N-1 cell growth in a cell viability assay.

KYSE-450 = settings: Homo sapiens;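 further: cell growth inhibition measured by a viability assay in human KYSE-450 cells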
Description: SANGER: Inhibition of human KYSE-450 cell growth in a cell viability assay.

NCI-H1573 = settings: Homo sapiens;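 further: growth inhibition of NCI-H1573 cells, read out with a cell viability assay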
Description: SANGER: Inhibition of human NCI-H1573 cell growth in a cell viability assay.

MCF7 = settings: Homo sapiens;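 further: growth inhibition of human MCF7 cells, read out with a cell viability assay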
Description: SANGER: Inhibition of human MCF7 cell growth in a cell viability assay.

KYSE-70 cell line = settings: Homo sapiens;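 further: cell viability assay read-out, with IC50 expressing suppression of KYSE-70 cell growth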
Description: SANGER: Inhibition of human KYSE-70 cell growth in a cell viability assay.

VM-CUB-1 = settings: Homo sapiens;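 further: cell viability assay measuring growth inhibition of the human VM-CUB-1 cell line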
Description: SANGER: Inhibition of human VM-CUB-1 cell growth in a cell viability assay.

TGW = settings: Homo sapiens;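 further: growth inhibition of human TGW cells, read out with a cell viability assay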
Description: SANGER: Inhibition of human TGW cell growth in a cell viability assay.

HPAF-II = settings: Homo sapiens;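 further: growth inhibition of HPAF-II cells, read out with a cell viability assay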
Description: SANGER: Inhibition of human HPAF-II cell growth in a cell viability assay.

MOLT-13 = settings: Homo sapiens;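 further: IC50 for suppression of MOLT-13 cell growth, read out with a cell viability assay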
Description: SANGER: Inhibition of human MOLT-13 cell growth in a cell viability assay.

NCI-H1993 = settings: Homo sapiens;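 further: growth inhibition of the cancer cell line, assessed with a cell viability assay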
Description: SANGER: Inhibition of human NCI-H1993 cell growth in a cell viability assay.

FaDu = settings: Homo sapiens;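 further: cell viability readout of growth inhibition in FaDu cells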
Description: SANGER: Inhibition of human FADU cell growth in a cell viability assay.

SJRH30 = settings: Homo sapiens;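 further: growth inhibition of human SJRH30 cells, read out with a cell viability assay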
Description: SANGER: Inhibition of human SJRH30 cell growth in a cell viability assay.

SW13 = settings: Homo sapiens;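 further: IC50 is inhibition of SW13 cell growth, read out with a cell viability assay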
Description: SANGER: Inhibition of human SW13 cell growth in a cell viability assay.

UACC-893 = settings: Homo sapiens
Description: SANGER: Inhibition of human UACC-893 cell growth in a cell viability assay.

639-V = settings: Homo sapiens;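 further: growth inhibition of 639-V cells, read out with a cell viability assay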
Description: SANGER: Inhibition of human 639-V cell growth in a cell viability assay.

KYSE-410 = settings: Homo sapiens;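 further: growth inhibition of KYSE-410 cells, measured through a cell viability readout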
Description: SANGER: Inhibition of human KYSE-410 cell growth in a cell viability assay.

SW1417 = settings: Homo sapiens;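 further: growth inhibition of human SW1417 cells, read out with a cell viability assay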
Description: SANGER: Inhibition of human SW1417 cell growth in a cell viability assay.

NCI-H2452 = settings: Homo sapiens;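 further: growth inhibition of NCI-H2452 cells, read out with a cell viability assay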
Description: SANGER: Inhibition of human NCI-H2452 cell growth in a cell viability assay.

SMILES: Cn1c(=O)n(-c2ccc(C(C)(C)C#N)cc2)c2c3cc(-c4cnc5ccccc5c4)ccc3ncc21 [DACTOLISIB]
- IC50 (CWR22R): 49.1 nM
- IC50 (SCC-9): 293 nM
- IC50 (BEN): 31.6 nM
- IC50 (VMRC-RCZ): 15.6 nM
- IC50 (769-P): 10.4 nM
- IC50 (CP50-MEL-B): 77.4 nM
- IC50 (OE19): 341 nM
- IC50 (MDA-MB-231): 105 nM
- IC50 (NCI-H1693): 136 nM
- IC50 (SW756): 555 nM
- IC50 (NCI-H2228): 88.3 nM
- IC50 (SW1990): 109 nM
- IC50 (SAS): 653 nM
- IC50 (Daoy): 36.7 nM
- IC50 (HTC-C3): 117 nM
- IC50 (Panc1005): 246 nM
- IC50 (SW780): 23.1 nM
- IC50 (KU-19-19): 31.1 nM
- IC50 (BT-20): 112 nM
- IC50 (Calu-3): 72 nM
- IC50 (CHP-212): 74.9 nM
- IC50 (PFSK-1): 49.1 nM
- IC50 (8505C): 37.5 nM
- IC50 (SW1710): 18.7 nM
- IC50 (HCC1569): 276 nM
- IC50 (SNU-449): 75.8 nM
- IC50 (ASPC1): 30.2 nM
- IC50 (HCC1419): 38.7 nM
- IC50 (COLO-678): > 2000 nM
- IC50 (EW-22): 46.2 nM
- IC50 (HO-1-N-1): 25.2 nM
- IC50 (KYSE-450): 55.2 nM
- IC50 (NCI-H1573): 87.5 nM
- IC50 (MCF7): 48.6 nM
- IC50 (KYSE-70 cell line): 152 nM
- IC50 (VM-CUB-1): 33.4 nM
- IC50 (TGW): 760 nM
- IC50 (HPAF-II): 156 nM
- IC50 (MOLT-13): 113 nM
- IC50 (NCI-H1993): > 2000 nM
- IC50 (FaDu): 267 nM
- IC50 (SJRH30): 144 nM
- IC50 (SW13): 66.5 nM
- IC50 (UACC-893): 406 nM
- IC50 (639-V): 85.4 nM
- IC50 (KYSE-410): 59.5 nM
- IC50 (SW1417): > 2000 nM
- IC50 (NCI-H2452): 44.6 nM

SMILES: CCCS(=O)(=O)Nc1ccc(F)c(C(=O)c2c[nH]c3ncc(Cl)cc23)c1F [PLX-4720]
- IC50 (CWR22R): > 10000 nM
- IC50 (SCC-9): > 10000 nM
- IC50 (BEN): > 10000 nM
- IC50 (VMRC-RCZ): > 10000 nM
- IC50 (769-P): > 10000 nM
- IC50 (CP50-MEL-B): 298 nM
- IC50 (OE19): > 10000 nM
- IC50 (MDA-MB-231): > 10000 nM
- IC50 (NCI-H1693): > 10000 nM
- IC50 (SW756): > 10000 nM
- IC50 (NCI-H2228): > 10000 nM
- IC50 (SW1990): > 10000 nM
- IC50 (SAS): > 10000 nM
- IC50 (Daoy): > 10000 nM
- IC50 (HTC-C3): 1660 nM
- IC50 (Panc1005): > 10000 nM
- IC50 (SW780): > 10000 nM
- IC50 (KU-19-19): > 10000 nM
- IC50 (BT-20): > 10000 nM
- IC50 (Calu-3): > 10000 nM
- IC50 (CHP-212): > 10000 nM
- IC50 (PFSK-1): > 10000 nM
- IC50 (8505C): > 10000 nM
- IC50 (SW1710): > 10000 nM
- IC50 (HCC1569): > 10000 nM
- IC50 (SNU-449): > 10000 nM
- IC50 (ASPC1): > 10000 nM
- IC50 (HCC1419): > 10000 nM
- IC50 (COLO-678): > 10000 nM
- IC50 (EW-22): > 10000 nM
- IC50 (HO-1-N-1): > 10000 nM
- IC50 (KYSE-450): > 10000 nM
- IC50 (NCI-H1573): > 10000 nM
- IC50 (MCF7): > 10000 nM
- IC50 (KYSE-70 cell line): > 10000 nM
- IC50 (VM-CUB-1): > 10000 nM
- IC50 (TGW): > 10000 nM
- IC50 (HPAF-II): > 10000 nM
- IC50 (MOLT-13): > 10000 nM
- IC50 (NCI-H1993): > 10000 nM
- IC50 (FaDu): > 10000 nM
- IC50 (SJRH30): > 10000 nM
- IC50 (SW13): > 10000 nM
- IC50 (UACC-893): > 10000 nM
- IC50 (639-V): > 10000 nM
- IC50 (KYSE-410): > 10000 nM
- IC50 (SW1417): > 10000 nM
- IC50 (NCI-H2452): > 10000 nM

SMILES: CC[C@]1(O)C[C@@H]2CN(CCc3c([nH]c4ccccc34)[C@@](C(=O)OC)(c3cc4c(cc3OC)N(C)[C@H]3[C@@](O)(C(=O)OC)[C@H](OC(C)=O)[C@]5(CC)C=CCN6CC[C@]43[C@@H]65)C2)C1 [VINBLASTINE]
- IC50 (CWR22R): 9.82 nM
- IC50 (SCC-9): 10.7 nM
- IC50 (BEN): 81.2 nM
- IC50 (VMRC-RCZ): 19.3 nM
- IC50 (769-P): 25.6 nM
- IC50 (CP50-MEL-B): 13.1 nM
- IC50 (OE19): > 100 nM
- IC50 (MDA-MB-231): 44.6 nM
- IC50 (NCI-H1693): 78.2 nM
- IC50 (SW756): 14.7 nM
- IC50 (NCI-H2228): 41.1 nM
- IC50 (SW1990): 61.4 nM
- IC50 (SAS): 28.1 nM
- IC50 (Daoy): 3.1 nM
- IC50 (HTC-C3): 10.4 nM
- IC50 (Panc1005): 42.8 nM
- IC50 (SW780): 2.33 nM
- IC50 (KU-19-19): 43.7 nM
- IC50 (BT-20): 37.7 nM
- IC50 (Calu-3): > 100 nM
- IC50 (CHP-212): 3.55 nM
- IC50 (PFSK-1): 4.97 nM
- IC50 (8505C): 3.11 nM
- IC50 (SW1710): 5.61 nM
- IC50 (HCC1569): 92.3 nM
- IC50 (SNU-449): > 100 nM
- IC50 (ASPC1): 13.2 nM
- IC50 (HCC1419): 57.2 nM
- IC50 (COLO-678): > 100 nM
- IC50 (EW-22): 29.3 nM
- IC50 (HO-1-N-1): 1.76 nM
- IC50 (KYSE-450): 9.65 nM
- IC50 (NCI-H1573): 30.7 nM
- IC50 (MCF7): 31.6 nM
- IC50 (KYSE-70 cell line): 48.4 nM
- IC50 (VM-CUB-1): 4.28 nM
- IC50 (HPAF-II): 40 nM
- IC50 (MOLT-13): 5.6 nM
- IC50 (NCI-H1993): > 100 nM
- IC50 (FaDu): 20 nM
- IC50 (SJRH30): 59.4 nM
- IC50 (SW13): 5.49 nM
- IC50 (UACC-893): 98.3 nM
- IC50 (639-V): 5.61 nM
- IC50 (KYSE-410): 9.3 nM
- IC50 (SW1417): > 100 nM
- IC50 (NCI-H2452): 9.59 nM
